Holding throughout (type): functional, cell-based
Holding throughout (conditions): monkey, cos-7, 100 µM

The target of data set [1] is T1, Hepatic sodium/bile acid cotransporter (Rattus norvegicus, UniProt P26435).
T1 sequence (P26435 whole entry): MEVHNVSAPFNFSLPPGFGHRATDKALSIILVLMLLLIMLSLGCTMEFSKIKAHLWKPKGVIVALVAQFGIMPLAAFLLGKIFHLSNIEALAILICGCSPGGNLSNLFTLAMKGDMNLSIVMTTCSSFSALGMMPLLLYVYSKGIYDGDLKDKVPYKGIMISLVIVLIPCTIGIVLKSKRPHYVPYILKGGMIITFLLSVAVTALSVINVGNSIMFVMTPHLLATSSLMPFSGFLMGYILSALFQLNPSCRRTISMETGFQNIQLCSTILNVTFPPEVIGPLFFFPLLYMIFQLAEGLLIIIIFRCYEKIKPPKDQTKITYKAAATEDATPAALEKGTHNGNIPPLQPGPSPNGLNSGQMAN
In words: TP_TRANSPORTER: inhibition of Taurocholate uptake (Taurocholate: 5 uM, CDCA: 100 uM) in Ntcp-expressing COS-7 cells.

For data set [2], the target named is T1, Hepatic sodium/bile acid cotransporter. In words: TP_TRANSPORTER: inhibition of Taurocholate uptake (Taurocholate: 5 uM, UDCA: 100 uM) in Ntcp-expressing COS-7 cells.
The target is the same in data set [3]. The data set can be described thus: TP_TRANSPORTER: inhibition of Taurocholate uptake (Taurocholate: 5 uM, TUDC: 100 uM) in Ntcp-expressing COS-7 cells.

Consider three compounds from ChEMBL document CHEMBL2074415, “Expression and characterization of a functional rat liver Na+ bile acid cotransport system in COS-7 cells” (Am J Physiol, 1994).

As for `C[C@H](CCC(=O)O)[C@H]1CC[C@H]2[C@@H]3[C@H](O)C[C@@H]4C[C@H](O)CC[C@]4(C)[C@H]3CC[C@]12C` [CHENODIOL], the Activity entry in data set [1] is “inhibitor [(at a rough estimate) 25 % of control]”.
Consider `C[C@H](CCC(=O)O)[C@H]1CC[C@H]2[C@@H]3[C@@H](O)C[C@@H]4C[C@H](O)CC[C@]4(C)[C@H]3CC[C@]12C` [URSODIOL], for which the Activity entry in data set [2] is “inhibitor [(at a rough estimate) 45 % of control]”.
As to `C[C@H](CCC(=O)NCCS(=O)(=O)O)[C@H]1CC[C@H]2[C@@H]3[C@@H](O)C[C@@H]4C[C@H](O)CC[C@]4(C)[C@H]3CC[C@]12C` [TAURURSODIOL], the Activity result in data set [3] is “inhibitor [(at a rough estimate) 25 % of control]”.
